The text below walks through data of US20110091570A1, “Compositions and Devices for Antisepsis and Anticoagulation” (priority 2008, published 2011).

This experiment deals with Streptococcus pyogenes. In words: Bactericidal activity of NCT without and with heparin (CFU counts). Type of experiment: cell-based. How it is done:
FIG. 3 presents a plot of bactericidal activity of 1% NCT without and with 125 IE/mL heparin against Streptococcus pyogenes at pH 7.1 and 37° C. Mean values±standard error of the mean of three independent experiments. P>0.05 between NCT without and NCT with heparin.
NCT was dissolved in 0.1 M phosphate buffer containing either 125 IE/mL heparin or no heparin. The final NCT concentration was 1%. Various bacterial species were grown in tryptic soy broth overnight, were washed twice in saline and then suspended in the NCT and NCT/heparin solutions. The species were Staphylococcus aureus (ATCC 25923), Escherichia coli (ATCC 11229), Streptococcus pyogenes, Staphylococcus epidermidis, Pseudomonas aeruginosa, Proteus mirabilis, and methicillin-resistant Staphylococcus aureus. Controls were performed with the foregoing bacterial species suspended in 0.1 M phosphate buffer without additives and in 0.1 M phosphate buffer containing 125 IE/mL heparin. All of the solutions were incubated at 37° C. and pH 7.1. After 1, 3, 5, 8, and 10 minutes, aliquots of 100 μL were removed and diluted 10-fold or 100-fold in 0.6% sodium thiosulfate solution to inactivate the NCT. Aliquots (50 μL) of these dilutions were spread on tryptic soy agar plates. The plates were incubated at 37° C. and colony forming units of bacteria were counted after 24 and 48 hours. […]

Molecules are shown by their SMILES.

For `O=S(=O)(O)CCNCl` [NCT, N-chlorotaurine], where the note is “0.1% NCT, virtually identical experiments”, the “influence of heparin on the killing of bacteria” value is “no statistically significant influence of heparin on the killing of bacteria”. The “killing activity of NCT with vs without heparin” value (1% NCT, 125 IE/mL heparin, pH 7.1, 37° C., 1-10 min) is recorded as “no difference in the killing activity”.
